# Assay results from PubChem BioAssay AID1259407 (Chemical Carcinogenesis Research Information System (CCRIS), 2018).
# Activity calls are given as the source filed them. The rule behind the calls is not given here.
# Tested on: CCRIS mutagenicity, Ames/micronucleus/aberration tests
# Experiment: CCRIS mutagenicity studies
compound,measurement,setting,value
O=[N+]([O-])c1ccc(Oc2ccc(Cl)cc2Cl)cc1,mutagenic call,"Test System: AMES SALMONELLA TYPHIMURIUM, Strain/Indicator: TA98, Metabolic Activation: S-9, Method: STANDARD PLATE",inactive; negative
same,mutagenic call,"Test System: AMES SALMONELLA TYPHIMURIUM, Strain/Indicator: TA100, Metabolic Activation: NONE, Method: STANDARD PLATE",active; positive
same,mutagenic call,"Test System: AMES SALMONELLA TYPHIMURIUM, Strain/Indicator: TA100, Metabolic Activation: S-9, Method: STANDARD PLATE",inactive; negative
same,mutagenic call,"Test System: AMES SALMONELLA TYPHIMURIUM, Strain/Indicator: TA100, Metabolic Activation: S-9 MIX, Method: STANDARD PLATE",active; positive
same,mutagenic call,"Test System: AMES SALMONELLA TYPHIMURIUM, Strain/Indicator: YG1021, Metabolic Activation: S-9, Method: STANDARD PLATE",inactive; negative
same,mutagenic call,"Test System: AMES SALMONELLA TYPHIMURIUM, Strain/Indicator: YG1024, Metabolic Activation: S-9, Method: STANDARD PLATE",inactive; negative
same,mutagenic call,"Test System: AMES SALMONELLA TYPHIMURIUM, Strain/Indicator: YG1026, Metabolic Activation: S-9, Method: STANDARD PLATE",active; positive
same,mutagenic call,"Test System: AMES SALMONELLA TYPHIMURIUM, Strain/Indicator: YG1029, Metabolic Activation: S-9, Method: STANDARD PLATE",active; positive
same,mutagenic call,"Test System: E. COLI, Strain/Indicator: WP2 UVRA, Metabolic Activation: HAMSTER, LIVER, S-9, AROCLOR 1254, Method: STANDARD PLATE",inactive; negative
same,mutagenic call,"Test System: E. COLI, Strain/Indicator: WP2 UVRA, Metabolic Activation: HAMSTER, LIVER, S-9, Method: STANDARD PLATE",inactive; negative
same,mutagenic call,"Test System: E. COLI, Strain/Indicator: WP2 UVRA, Metabolic Activation: MOUSE, LIVER, S-9, AROCLOR 1254, Method: STANDARD PLATE",inactive; negative
same,mutagenic call,"Test System: E. COLI, Strain/Indicator: WP2 UVRA, Metabolic Activation: MOUSE, LIVER, S-9, Method: STANDARD PLATE",inactive; negative
same,mutagenic call,"Test System: E. COLI, Strain/Indicator: WP2 UVRA, Metabolic Activation: NONE, Method: STANDARD PLATE",inactive; negative
same,mutagenic call,"Test System: E. COLI, Strain/Indicator: WP2 UVRA, Metabolic Activation: RAT, LIVER, S-9, AROCLOR 1254, Method: STANDARD PLATE",inactive; negative
same,mutagenic call,"Test System: E. COLI, Strain/Indicator: WP2 UVRA, Metabolic Activation: RAT, LIVER, S-9, Method: STANDARD PLATE",inactive; negative
same,mutagenic call,"Test System: MOUSE LYMPHOMA, Strain/Indicator: L5178Y (HPRT), Metabolic Activation: NONE, Method: SUSPENSION/PLATE",inactive; negative
same,mutagenic call,"Test System: MOUSE LYMPHOMA, Strain/Indicator: L5178Y (TK+/TK-), Metabolic Activation: NONE, Method: SUSPENSION/PLATE",inactive; negative
CCSC(=O)N1CCCCCC1,mutagenic call,"Test System: AMES SALMONELLA TYPHIMURIUM, Strain/Indicator: TA98, Metabolic Activation: NONE",inactive; negative
same,mutagenic call,"Test System: AMES SALMONELLA TYPHIMURIUM, Strain/Indicator: TA98, Metabolic Activation: RAT, LIVER, S-9, AROCLOR 1254",inactive; negative
same,mutagenic call,"Test System: AMES SALMONELLA TYPHIMURIUM, Strain/Indicator: TA100, Metabolic Activation: NONE",inactive; negative
same,mutagenic call,"Test System: AMES SALMONELLA TYPHIMURIUM, Strain/Indicator: TA100, Metabolic Activation: RAT, LIVER, S-9, AROCLOR 1254",inactive; negative
same,mutagenic call,"Test System: AMES SALMONELLA TYPHIMURIUM, Strain/Indicator: TA102, Metabolic Activation: NONE",inactive; negative
same,mutagenic call,"Test System: AMES SALMONELLA TYPHIMURIUM, Strain/Indicator: TA102, Metabolic Activation: RAT, LIVER, S-9, AROCLOR 1254",inactive; negative
same,mutagenic call,"Test System: AMES SALMONELLA TYPHIMURIUM, Strain/Indicator: TA1535, Metabolic Activation: NONE",inactive; negative
same,mutagenic call,"Test System: AMES SALMONELLA TYPHIMURIUM, Strain/Indicator: TA1535, Metabolic Activation: RAT, LIVER, S-9, AROCLOR 1254",inactive; negative
same,mutagenic call,"Test System: AMES SALMONELLA TYPHIMURIUM, Strain/Indicator: TA1537, Metabolic Activation: NONE",inactive; negative
same,mutagenic call,"Test System: AMES SALMONELLA TYPHIMURIUM, Strain/Indicator: TA1537, Metabolic Activation: RAT, LIVER, S-9, AROCLOR 1254",inactive; negative
